Test results taken from patent US20130150325A1, “3-(Fluorovinyl)pyrazoles and their use” (BAYER INTELLECTUAL PROPERTY GMBH, priority 2011, published 2013).

Test system: HCT 116 cells transfected with a luciferase reporter under the control of an HIF-responsive sequence
Assay: HIF-luciferase assay
Assay type: cell-based
Details: Homo sapiens; HCT 116 HIF-luciferase reporter cells, hypoxia chamber (1% O2), 24 h; in some cases means of up to four individual determinations
Description: HCT 116 cells were transfected in a stable manner with a plasmid which contained a luciferase reporter under the control of an HIF-responsive sequence. These cells were sown in microtitre plates [20 000 cells/cavity in RPMI 1640 medium with 10% foetal calf serum (FCS) and 100 μg/ml of hygromycin]. Incubation was carried out overnight under standard conditions (5% CO2, 21% O2, 37° C., moistened). The following morning the cells were incubated with various concentrations of the test substances (0-10 μmol/l) in a hypoxia chamber (1% O2). After 24 h, Bright Glo reagent (Promega, Wisconsin, USA) was added in accordance with the manufacturer's instructions, and after 5 min the luminescence was measured. Cells which were incubated under normoxia served as background controls.
The IC50 values from this assay for representative working examples are listed in the following table (in same cases as means of up to four individual determinations): […]

Row | IC50 | Compound
1 | 2 nM | CNc1ccc(Cn2nc(/C(F)=C/c3ccc(C4CCCCC4)cc3)cc2C)cn1 [Example 88, 5-({3-[(Z)-2-(4-Cyclohexylphenyl)-1-fluorovinyl]-5-methyl-1H-pyrazol-1-yl}methyl)-N-methylpyridine-2-amine]
2 | 1 nM | CNc1ccc(Cn2nc(/C(F)=C/c3ccc(SC(F)(F)F)cc3)cc2C)cn1 [Example 82, 5-({3-[(Z)-1-Fluoro-2-{4-[(trifluoromethyl)sulphanyl]phenyl}vinyl]-5-methyl-1H-pyrazol-1-yl}-methyl)-N-methylpyridine-2-amine]
3 | 3 nM | Cc1cc(/C(F)=C/c2ccc(OC(F)(F)F)cc2)nn1Cc1cccc(C(=O)N2CCOCC2)c1 [Example 31, {3-[(3-{(Z)-1-Fluoro-2-[4-(trifluoromethoxy)phenyl]vinyl}-5-methyl-1H-pyrazol-1-yl)methyl]-phenyl}(morpholin-4-yl)methanone]
4 | 0.3 nM | Cc1cc(/C(F)=C/c2ccc(OC(F)(F)F)cc2)nn1Cc1cccc(N2CCC(O)CC2)c1 [Example 12, 1-{3-[(3-{(Z)-1-Fluoro-2-[4-(trifluoromethoxy)phenyl]vinyl}-5-methyl-1H-pyrazol-1-yl)methyl]phenyl}piperidin-4-ol]
5 | 4 nM | Cc1cc(/C(F)=C/c2ccc(OC(F)(F)F)cc2)nn1Cc1cccc(C(=O)N2CCC(O)CC2)c1 [Example 32, {3-[(3-{(Z)-1-Fluoro-2-[4-(trifluoromethoxy)phenyl]vinyl}-5-methyl-1H-pyrazol-1-yl)-methyl]phenyl}(4-hydroxypiperidin-1-yl)methanone]
6 | 4 nM | Cc1cc(/C(F)=C/c2ccc(C(F)(F)F)cc2)nn1Cc1cccc(C(=O)N2CCC(O)CC2)c1 [Example 36, {3-[(3-{(Z)-1-Fluoro-2-[4-(trifluoromethyl)phenyl]vinyl}-5-methyl-1H-pyrazol-1-yl)methyl]-phenyl}(4-hydroxypiperidin-1-yl)methanone]
7 | 5 nM | CCNC(=O)C(C)(C)Sc1ccc(/C=C(\F)c2cc(C)n(Cc3ccc(NC)nc3)n2)cc1 [Example 92, N-Ethyl-2-({4-[(Z)-2-fluoro-2-(5-methyl-1-{[6-(methylamino)pyridin-3-yl]methyl}-1H-pyrazol-3-yl)vinyl]phenyl}sulphanyl)-2-methylpropanamide]
8 | 4 nM | Cc1cc(/C(F)=C/c2ccc(OC(F)(F)F)cc2)nn1Cc1cccc(C2(CO)CC2)c1 [Example 55, (1-{3-[(3-{(Z)-1-Fluoro-2-[4-(trifluoromethoxy)phenyl]vinyl}-5-methyl-1H-pyrazol-1-yl)methyl]-phenyl}cyclopropyl)methanol]
9 | 5 nM | Cc1cc(/C(F)=C/c2ccc(C3(C(F)(F)F)CC3)cc2)nn1Cc1cccc(C(=O)N2CCC(O)CC2)c1 [Example 35, [3-({3-[(Z)-1-Fluoro-2-{4-[1-(trifluoromethyl)cyclopropyl]phenyl}vinyl]-5-methyl-1H-pyrazol-1-yl}methyl)phenyl](4-hydroxypiperidin-1-yl)methanone]
10 | 6 nM | Cc1cc(/C(F)=C/c2ccc(OC(F)(F)F)cc2)nn1Cc1cccc(C(=O)N(C)C)c1 [Example 25, 3-[(3-{(Z)-1-Fluoro-2-[4-(trifluoromethoxy)phenyl]vinyl}-5-methyl-1H-pyrazol-1-yl)methyl]-N,N-dimethylbenzamide]
11 | 2.5 nM | Cc1cc(/C(F)=C/c2ccc(C(C)(C)C(F)(F)F)cc2)nn1Cc1cccc(C(F)(F)CO)c1 [Example 62, 2,2-Difluoro-2-{3-[(3-{(Z)-1-fluoro-2-[4-(1,1,1-trifluoro-2-methylpropan-2-yl)phenyl]vinyl}-5-methyl-1H-pyrazol-1-yl)methyl]phenyl}ethanol]
12 | 2 nM | CNc1ccc(Cn2nc(/C(F)=C/c3ccc(CC(C)C)cc3)cc2C)cn1 [Example 90, 5-({3-[(Z)-1-Fluoro-2-(4-isobutylphenyl)vinyl]-5-methyl-1H-pyrazol-1-yl}methyl)-N-methyl-pyridine-2-amine]
13 | 0.4 nM | Cc1cc(/C(F)=C/c2ccc(C(C)(C)C(F)(F)F)cc2)nn1Cc1cccc(N2CCC(C#N)CC2)c1 [Example 10, 1-{3-[(3-{(Z)-1-Fluoro-2-[4-(1,1,1-trifluoro-2-methylpropan-2-yl)phenyl]vinyl}-5-methyl-1H-pyrazol-1-yl)methyl]phenyl}piperidine-4-carbonitrite]
14 | 4 nM | Cc1cc(/C(F)=C/c2ccc(SC(F)(F)F)cc2)nn1Cc1cccc(C(=O)N2CCC(O)CC2)c1 [Example 33, [3-({3-[(Z)-1-Fluoro-2-{4-[(trifluoromethyl)sulphanyl]phenyl}vinyl]-5-methyl-1H-pyrazol-1-yl}-methyl)phenyl](4-hydroxypiperidin-1-yl)methanone]
15 | 6 nM | Cc1cc(/C(F)=C/c2ccc(C(F)(F)F)cc2)nn1Cc1cccc(C(=O)N2CCCC2)c1 [Example 30, {3-[(3-{(Z)-1-Fluoro-2-[4-(trifluoromethyl)phenyl]vinyl}-5-methyl-1H-pyrazol-1-yl)methyl]-phenyl}(pyrrolidin-1-yl)methanone]
16 | 2 nM | CNc1ccc(Cn2nc(/C(F)=C/c3ccc(C4(C(F)(F)F)CC4)cc3)cc2C)cn1 [Example 84, 5-({3-[(Z)-1-Fluoro-2-{4-[1-(trifluoromethyl)cyclopropyl]phenyl}vinyl]-5-methyl-1H-pyrazol-1-yl}methyl)-N-methylpyridine-2-amine]
17 | 0.5 nM | Cc1cc(/C(F)=C/c2ccc(C(C)(C)C(F)(F)F)cc2)nn1Cc1cccc(N2CC(O)C2)c1 [Example 16, 1-{3-[(3-{(Z)-1-Fluoro-2-[4-(1,1,1-trifluoro-2-methylpropan-2-yl)phenyl]vinyl}-5-methyl-1H-pyrazol-1-yl)methyl]phenyl}azetidin-3-ol]
18 | 4 nM | Cc1cc(/C(F)=C/c2ccc(SC(F)(F)F)cc2)nn1Cc1cccc(C(=O)N2CCCC2)c1 [Example 27, [3-({3-[(Z)-1-Fluoro-2-{4-[(trifluoromethyl)sulphanyl]phenyl}vinyl]-5-methyl-1H-pyrazol-1-yl}methyl)phenyl](pyrrolidin-1-yl)methanone]
19 | 2 nM | Cc1cc(/C(F)=C/c2ccc(OC(F)(F)F)cc2)nn1Cc1cccc(N2CC(O)C2)c1 [Example 15, 1-{3-[(3-{(Z)-1-Fluoro-2-[4-(trifluoromethoxy)phenyl]vinyl}-5-methyl-1H-pyrazol-1-yl)methyl]phenyl}azetidin-3-ol]
20 | 0.2 nM | Cc1cc(/C(F)=C/c2ccc(C3(C(F)(F)F)CC3)cc2)nn1Cc1cccc(N2CCC(O)CC2)c1 [Example 14, 1-[3-({3-[(Z)-1-Fluoro-2-{4-[1-(trifluoromethyl)cyclopropyl]phenyl}vinyl]-5-methyl-1H-pyrazol-1-yl}methyl)phenyl]piperidin-4-ol]
21 | 1.5 nM | Cc1cc(/C(F)=C/c2ccc(OC(F)(F)F)cc2)nn1Cc1cccc(C(=O)N2CCCC2)c1 [Example 26, {3-[(3-{(Z)-1-Fluoro-2-[4-(trifluoromethoxy)phenyl]vinyl}-5-methyl-1H-pyrazol-1-yl)-methyl]phenyl}(pyrrolidin-1-yl)methanone]
22 | 3 nM | Cc1cc(/C(F)=C/c2ccc(C(C)(C)C(F)(F)F)cc2)nn1Cc1cccc(C(C)(C)O)c1 [Example 54, 2-{3-[(3-{(Z)-1-Fluoro-2-[4-(1,1,1-trifluoro-2-methylpropan-2-yl)phenyl]vinyl}-5-methyl-1H-pyrazol-1-yl)methyl]phenyl}propan-2-ol]
23 | 30 nM | CNc1ccc(Cn2nc(/C=C(\F)c3ccc(OC(F)(F)F)cc3)cc2C)cn1 [Example 117, 5-[(3-{(Z)-2-Fluoro-2-[4-(trifluoromethoxy)phenyl]vinyl}-5-methyl-1H-pyrazol-1-yl)methyl]-N-methylpyridine-2-amine]
24 | 2 nM | Cc1ccc(Cn2nc(/C(F)=C/c3ccc(N4CC(C)OC(C)C4)nc3)cc2C)cc1 (stereo not shown) [Example 4, 4-(5-{(Z)-2-Fluoro-2-[5-methyl-1-(4-methylbenzyl)-1H-pyrazol-3-yl]vinyl}pyridin-2-yl)-2,6-dimethylmorpholine]
25 | 20 nM | CCNc1ccc(Cn2nc(/C(F)=C/c3ccc(C(O)(C(F)(F)F)C(F)(F)F)cc3)cc2C)cn1 [Example 97, 2-{4-[(Z)-2-(1-{[6-(Ethylamino)pyridin-3-yl]methyl}-5-methyl-1H-pyrazol-3-yl)-2-fluorovinyl]-phenyl}-1,1,1,3,3,3-hexafluoropropan-2-ol]
26 | 2.5 nM | Cc1cc(/C(F)=C/c2ccc(OC(F)(F)F)c(Cl)c2)nn1Cc1ccnc(N2CCN(C3CC3)CC2)c1 [Example 103, 1-{4-[(3-{(Z)-2-[3-Chloro-4-(trifluoromethoxy)phenyl]-1-fluorovinyl}-5-methyl-1H-pyrazol-1-yl)-methyl]pyridin-2-yl}-4-cyclopropylpiperazine]

Row | Compound | IC50
27 | COC(=O)c1cccc(Cn2nc(/C(F)=C/c3ccc([Si](C)(C)C)cc3)cc2C)c1 [Example 23, Methyl 3-[(3-{(Z)-1-fluoro-2-[4-(trimethylsilyl)phenyl]vinyl}-5-methyl-1H-pyrazol-1-yl)methyl]benzoate] | 1 nM
28 | Cc1cc(/C(F)=C/c2ccc([Si](C)(C)C)cc2)nn1Cc1ccnc(N2CCN(C3CC3)CC2)c1 [Example 106, 1-Cyclopropyl-4-{4-[(3-{(Z)-1-fluoro-2-[4-(trimethylsilyl)phenyl]vinyl}-5-methyl-1H-pyrazol-1-yl)methyl]pyridin-2-yl}piperazine] | 0.5 nM
